Assays:
[1] = Solubility and precipitation in water / on plates (mutation assay); format: physicochemical; conditions: initial toxicity-mutation assay with lactose, up to 31765 μg per plate
Description: (§1) The dose levels tested were 1.5, 5.0, 15, 50, 150, 500, 1500 and 5000 μg per plate.
(§2) The dose levels tested were 50, 150, 500, 1500 and 5000 μg per plate.

[2] = test system: Chinese hamster ovary (CHO) cells; assay: Chromosome aberration assay in CHO cells; format: cell-based; conditions: preliminary toxicity assay, any dose level up to 5000 μg/mL, all three exposure groups
Description: A preliminary toxicity test was performed to establish the dose range for the chromosome aberration assay. The chromosome aberration assay was used to evaluate the clastogenic potential of the test article. The dosing solution concentrations were adjusted to compensate for the protein content (13.6%) of the test article using a correction factor of 7.35.
In order to evaluate the toxic effect of lactose alone on the test system, α-Lactose monohydrate was tested as reference article at the same percentage of lactose as in the highest test article dose formulation in the preliminary toxicity assay. McCoy's media (complete medium for the non-activated test system and serum-free medium for the S9-activated test system) were the solvents of choice based on the solubility of the test article and compatibility with the target cells. […] The reference article was soluble in McCoy's complete and serum-free media at the dose level tested in the preliminary toxicity assay.
In the preliminary toxicity assay, the maximum dose tested was 5000 μg/mL. […] The reference article was soluble in complete medium and serum-free medium at 31.76 mg/mL at the beginning and conclusion of the treatment period. […]

male and female ICR mice = conditions: mouse, in vivo
Description: (§3) The assay was performed in two phases. The first phase, pilot toxicity study, was designed to assess toxicity of the test article and set dose levels for the definitive study. The second phase, the definitive micronucleus study, was designed to evaluate the potential of the test article to increase the incidence of micronucleated polychromatic erythrocytes in bone marrow of male and female ICR mice.
(§4) Phosphate buffered saline (PBS) was used as the test article vehicle. The test article was a workable suspension in PBS at 100 mg/mL, the maximum concentration prepared and tested in this study. […] In both phases of the study, test or control articles were administered at a dose volume of 20 mL/kg body weight via a single oral gavage dose.
(§5) The definitive micronucleus study consisted of seven groups, each containing 5 male and female ICR mice. […] An additional group of 5 male and 5 female ICR mice were treated with 2000 mg/kg to be used as possible replacement animals for the high dose in the event of mortality. […] Bone marrow cells [polychromatic erythrocytes (2000 PCEs/animal)] collected 24 and 48 hours after treatment were examined microscopically for the presence of micronuclei.

[3] = test system: Salmonella typhimurium tester strains TA98, TA100, TA1535 and TA1537 and Escherichia coli tester strain WP2 uvrA; assay: Bacterial Reverse Mutation Assay (plate incorporation method); conditions: initial toxicity-mutation assay with lactose, maximum dose 31765 μg per plate
Description: as §1
Based on the findings of the initial toxicity-mutation assay, the maximum dose plated in the confirmatory mutagenicity assay was 5000 μg per plate.
as §2

[4] = test system: polychromatic erythrocytes in bone marrow of male and female ICR mice; conditions: definitive study, male and female mice, 24 or 48 h after dose; CP 50 mg/kg; Kastenbaum-Bowman Tables
Description: as §3, §4, §5

Structure (SMILES): O.OC[C@H]1O[C@@H](O[C@H]2[C@H](O)[C@@H](O)[C@@H](O)O[C@@H]2CO)[C@H](O)[C@@H](O)[C@H]1O [α-Lactose monohydrate]
- precipitate [1]: Neither precipitate
- substantial toxicity (at least 50% cell growth inhibition relative to solvent control) [2]: not observed
- mortality and clinical signs (male and female ICR mice): no clinical signs
- toxicity [3]: Neither precipitate nor appreciable toxicity

Structure (SMILES): O=P1(N(CCCl)CCCl)NCCCO1 (centres unmarked) [CP, cyclophosphamide monohydrate]
- incidence of micronucleated polychromatic erythrocytes relative to vehicle control [4]: significant increase

Source: US20110098216A1 (REGEN THERAPEUTICS PLC, priority 2009, published 2011)
